Data set [1] is described as follows: Neurotoxicity (rotating rod / rotorod), mice. Conditions: mouse, in vivo. Here is the method:
(§1) In the neurotoxicity test, the value (NTD50) is defined as the dose necessary to cause 50% of mice or rats trained to walk a rotating wooden rod (5 rpm) to fall at the time of peak effect, and is a measure of drug effects on motor function or central nervous system toxicity. The results set forth in Table III were obtained when the compound of Example 6 was tested against chlorpromazine and chlordiazepoxide.
Background: Falling from the rotarod earlier than controls is read as motor impairment.

Data set [2] has as its system mice trained to walk a rotating wooden rod. The data set is described as follows: Neurotoxicity (rotating rod / rotorod), mice. To be noted: mouse, in vivo. On the procedure:
as §1

For data set [3], the system named is isolation-induced fighting in mice. Description: Isolated fighting mouse (IFM) test / isolated mouse aggression. In kind it is in vivo. To be noted: for protected test animals in the IFM test: dose not restated in this sentence. Here is the method:
*IFM - Isolated fighting mouse test at a dose of 30 mg/kg
intraperitoneally; those compounds which protected at least 40% of the
(§2) Two models of aggression are used in the primary screening for neuroleptics, (1) isolation-induced fighting in mice (IFM), and (2) aggression induced in rats by destruction of the septal area (septal rat). Compounds are first submitted, however, to the neuropharmacological profile, a standard procedure (see, e.g., Samuel Irwin, Science, 136, 123 [1962]) employed in screening a compound to determine its usefulness as a central nervous system active compound. Those agents which cause depression over a wide dose range are then submitted to the first anti-aggression screen, the isolation-induced fighting mouse assay.
(§3) The compound of Example 6 was compared with chlorpromazine and chlordiazepoxide for its anti-aggressive activity. Three models of experimentally-induced aggression in rodents were studied (R. D. Sofia, Life Science, 8: 705, 1969).

For data set [4], the system named is aggression induced in rats by destruction of the septal area. Description: Septal rat aggression. Type of data set: in vivo. To be noted: for ED50: Rattus norvegicus, ip.
Source text: as §2, §3

Data set [5] deals with isolation-induced fighting in mice. Description: Isolated fighting mouse (IFM) test / isolated mouse aggression. Type of data set: in vivo. Conditions: ip, 60 mg/kg intraperitoneally, read-out: IFM % protected.
Data set [6] has as its system tetrabenazine-induced ptosis in mice. To be noted: stated as known comparison; cited from earlier work.
In data set [7] the test system is dihydroxyphenylalanine-induced fighting behavior in mice. The data set is described as follows: Dihydroxyphenylalanine (DOPA) fighting test. Type of data set: in vivo, mouse. To be noted: 200 mg/kg d1-DOPA; pargyline 80 mg/kg, Example 6 100 mg/kg, chlorpromazine 5 mg/kg, chlordiazepoxide 15 mg/kg. Here is the method:
It is well known that when monoamine oxidase inhibitors are administered prior to the administration of d1-DOPA, which is a noradrenaline precursor, convulsions or excitation occur. In this study, the MAO inhibitor pargyline (80 mg/kg) was given 1, 2 and 4 hours prior to administering 200 mg/kg of d1-DOPA. […] Thus, in this procedure, none of the agents tested appears to be a MAO inhibitor.

Data set [8] concerns d-amphetamine aggregation-induced lethality. Description: d-Amphetamine aggregation. Conditions: inactive at: Example 6 200 mg/kg, chlordiazepoxide 50 mg/kg. In kind it is in vivo. Here is the method: Protection from d-amphetamine aggregation-induced lethality is usually afforded by alpha-adrenergic-blocking agents such as chlorpromazine, phenoxybenzamine, etc. Percent protection was determined and an ED50 value was calculated.

In data set [9] the test system is electroshock-induced fighting in mice. Description: Electroshock-induced fighting in mice. Conditions: for ED50: Mus musculus, ip, read-out: ED50 (95% Confidence Limits), Electroshock-Induced Fighting in Mice; for NTD50/ED50, Electroshock-Induced Fighting in Mice: i.p. administration. In kind it is in vivo, mouse.
Source text: as §3

Data set [10] concerns hissing response elicited by hypothalamic stimulation in cats. Conditions: Baxter, Life Sciences, 3: 531, 1964, cited from earlier work.
Data set [11] can be described thus: Neurotoxicity (rotating rod / rotorod), rats. Conditions: rat, in vivo, ip; I.P., rats; 95% confidence limits; read-out: NTD50. On the procedure: as §1
A short description of data set [12]: 5 day lethality, rats. To be noted: rat, in vivo, ip; Rats, I.P., 5 day, 10 per cage; read-out: LD50 (95% Confidence Limits). From the text: (§4) Table VIII gives the results of 5 day lethality studies following single injections of drug. All values presented represent tests conducted when animals were housed 10 per cage. The compound of Example 6 was compared with chlorpromazine and chlordiazepoxide. In these and all the preceding calculations, the method of Litchfield and Wilcoxon (J. Pharmacol. Exptl. Ther., 96: 99, 1949) was used to estimate effective (ED50) or lethal (LD50) dose.

The subject of data set [13] is pentylenetetrazol seizures in mice. Description: Pentylenetetrazol seizures. Type of data set: in vivo, mouse. To be noted: for ED50: Mus musculus, ip, 1 h. Here is the method: In this test (modification of the method introduced by Everett and Richard, J. Pharmacol. Exptl. Ther., 81: 402, 1944), groups of ten mice each are pretreated i.p. with vehicle and various doses of the compound of Example 6 and placed in Plexiglas squares. Thirty minutes later, all mice are injected subcutaneously (s.c.) with pentylenetetrazol at 125 mg/kg and observed immediately thereafter for convulsions and death for a period of 1 hour.

The test system of data set [14] is maximal electroshock seizures in mice. The data set is described as follows: Maximal electroshock seizures. In kind it is in vivo, mouse. Here is the method: Groups of ten mice each were injected i.p. with a vehicle and the compound of Example 6 and placed in individual Plexiglas squares. Thirty minutes after i.p. injection, each mouse was administered an electric shock transcorneally at 50mA intensity, 0.2 seconds duration (Swinyard, et al, J. Pharmacol. Exptl. Ther., 106: 319, 1952). The criterion for activity is protection against tonic extension of the hind limbs. The dose necessary to protect 50% of the mice (MES50) was determined.
(In the maximal electroshock model the usual endpoint is tonic extension of the hind limbs.)

The nature of data set [15]: 5 day lethality, mice. To be noted: mouse, in vivo, Mice, 5 day, 10 per cage, read-out: LD50 (95% Confidence Limits).
Source text: as §4

The subject of data set [16] is spontaneous locomotor activity in rats. Description: Spontaneous locomotor activity. To be noted: Rattus norvegicus, ip, 0.5 h, read-out: SD50 (dose causing 50% reduction from control activity). In kind it is in vivo.
Setting [17] is: ip, I.P., mice, 95% confidence limits, read-out: NTD50.

Where a name gives a salt, the structure may show the parent alone. Read-outs that look alike come from different tables or passages of the source.

This is an account of results in patent US3932633A, “Novel o-triazenobenzamides, in treating aggressive behavior” (Uniroyal Inc., priority 1974, dated 1976).

As to `Cc1ccc(NN=Nc2ccccc2C(N)=O)cc1Cl` [Example 3, 2-[3-(3-chloro-4-methylphenyl)-1(or 2)-triazeno]-benzamide], in data set [1], the TD50 is over 100 mg/kg. In data set [2], the depression result is “do not cause depression”. This compound also gave a responders at 30 mg/kg in data set [3] (Mus musculus, ip, 30 mg/kg intraperitoneally, at least 40% protected = active) of 100%. For the same compound, the ED50 in data set [3] (Mus musculus, ip, i.p. administration, read-out: ED50 (IFM)) is 9.1 mg/kg. The “protected test animals in the IFM test” value in [3] amounted to 100%.
On to `Cc1nc(NN=Nc2ccccc2C(=O)NCCCN(C)C)sc1C(=O)NCc1ccccc1` [Example 7, N-(3-dimethylaminopropyl)-2-[3-(4-methyl-5-(N-benzylcarbamoyl)-2-thiazolyl)-2(or 1)-triazeno]-benzamide (2:1) sulfate salt], for which the “septal rat aggression, protection” value in [4] (6.25 mg/kg i.p.) and in [4] (12.5 mg/kg i.p.) was 100% throughout. The ED50 in data set [4] (indicated by 100% protection at 6.25 mg/kg, read-out: ED50, septal rat aggression) was under 6.25 mg/kg. Besides, in data set [5], the responders at 60 mg/kg worked out at 100%. In [1], the TD50 is over 100 mg/kg. For the same compound, the depression entry in [2] is on record as “do not cause depression”. The “protected test animals in the IFM test” value in [3] is 100%.
For the compound `CN(C)CCC=C1c2ccccc2CCc2ccccc21` [amitriptyline], the “reversal of tetrabenazine-induced ptosis by anti-depressants” value in [6] was “reverse tetrabenazine-induced ptosis”.
`CNCCCN1c2ccccc2CCc2ccccc21` [desipramine]: the “reversal of tetrabenazine-induced ptosis by anti-depressants” value in [6] was “reverse tetrabenazine-induced ptosis”.
As usually defined, the LD50 is the dose expected to kill half of the subjects tested. On to `CNC1=Nc2ccc(Cl)cc2C(c2ccccc2)=[N+]([O-])C1` [Chlordiazepoxide, chlordiazepoxide], for which the “excitation, salivation, jumping, and fighting with d1-DOPA” value in data set [7] is reported as “these symptoms were not observed”. Further, the “ED50, d-amphetamine aggregation” value in [8] is “Inactive”. For the same compound, the ED50 is 25.8 mg/kg in [4] (read-out: ED50 (95% Confidence Limits), Septal Rat Aggression); 4.2 mg/kg in [9]; 7.1 mg/kg in data set [13] (read-out: MET50, convulsions); 2.6 mg/kg in [13] (read-out: MET50, death); 14.3 mg/kg in [14] (Mus musculus, ip, 0.5 h, read-out: MES50); 20.5 mg/kg in data set [3] (Mus musculus, ip, read-out: ED50 (95% Confidence Limits), Isolated Mouse Aggression). Also, the “NTD50/ED50, Septal Rat Aggression” value in [4] (i.p. administration) worked out at 0.6. Moreover, the “NTD50/ED50, Electroshock-Induced Fighting in Mice” value in data set [9] turned out to be 3.3. Moreover, the figures for the “effect on hypothalamic threshold / rage response” value in [10] and in [10] (listed as chlordiazepoxide) were “increase the threshold of the hypothalamus to electrical stimulation” and “specific in inhibiting this response”, respectively. The TD50 was found to be 4.3 mg/kg in data set [11] and 13.8 mg/kg in data set [1] (setting [17]). For the same compound, the LD50 at 120 h in data set [12] is 265 mg/kg; in [15] (ip, I.P.), 400 mg/kg; in data set [15] (po, P.O.), 810 mg/kg. Moreover, the “NTD50/ED50, Isolated Mouse Aggression” value in data set [3] (i.p. administration) was 0.7.
On to `CN(C)CCCN1c2ccccc2Sc2ccc(Cl)cc21` [Chlorpromazine, chlorpromazine], for which, in data set [7], the “excitation, salivation, jumping, and fighting with d1-DOPA” value was “these symptoms were not observed”. Further, the ED50 in data set [8] came to 1.2 mg/kg; in [4] (i.p. administration, read-out: ED50 (95% Confidence Limits), Septal Rat Aggression) it was 10.7 mg/kg; in data set [9], 5.5 mg/kg; in [16], 1.7 mg/kg; in data set [3] (Mus musculus, ip, i.p. administration, read-out: ED50 (95% Confidence Limits), Isolated Mouse Aggression) it was 2.8 mg/kg. Moreover, the “NTD50/ED50, Septal Rat Aggression” value in data set [4] (i.p. administration) is reported as 0.5. Besides, the “NTD50/ED50, Electroshock-Induced Fighting in Mice” value in data set [9] was 0.1. For the same compound, the TD50 came out at 5.3 mg/kg in [11] and 0.7 mg/kg in data set [1] (setting [17]). Also, the LD50 at 120 h was found to be 138 mg/kg in data set [12]; 136 mg/kg in data set [15] (ip, I.P.); 280 mg/kg in data set [15] (po, P.O.). In data set [13] (I.P., mice, inactive at: Example 6 200 mg/kg, chlorpromazine 100 mg/kg), the MET50 result is recorded as “Inactive”. In data set [14] (I.P., mice, inactive at: Example 6 200 mg/kg, chlorpromazine 25 mg/kg), the MES50 result is “Inactive”. Moreover, the “NTD50/ED50, Isolated Mouse Aggression” value in [3] (i.p. administration) is listed as 0.3.
